Assay results reported in patent publication US7932384B2, “Reverse-turn mimetics and method relating thereto” (Choongwae Pharma Corporation, priority 2001, dated 2011).

Key:
GADPH = experiment: Real time RT-PCR gene expression, GADPH; assay type: cell-based; conditions: 25 μM, 24 hours; <0.5 significant decrease, >1.5 significant increase
Protocol: (§1) Real time reverse transcription-PCR analysis was performed according to the protocol provided with the SYBR Green PCR Master Mix Kit (Perkin Elmer Biosystems, Shelton, ST). […] The primers used for the RT-PCR reactions were [NT] and [NT].

HLAC = experiment: Real time RT-PCR gene expression, HLAC; assay type: cell-based; conditions: 25 μM, 24 hours; <0.5 significant decrease, >1.5 significant increase
Protocol: as §1

[1] = target: β-catenin/p300 interaction (Homo sapiens, UniProt Q09472); conditions: Emami et al., Cancer Cell, in press; cited from earlier work
β-catenin/p300 interaction, sequence (Q09472 whole entry): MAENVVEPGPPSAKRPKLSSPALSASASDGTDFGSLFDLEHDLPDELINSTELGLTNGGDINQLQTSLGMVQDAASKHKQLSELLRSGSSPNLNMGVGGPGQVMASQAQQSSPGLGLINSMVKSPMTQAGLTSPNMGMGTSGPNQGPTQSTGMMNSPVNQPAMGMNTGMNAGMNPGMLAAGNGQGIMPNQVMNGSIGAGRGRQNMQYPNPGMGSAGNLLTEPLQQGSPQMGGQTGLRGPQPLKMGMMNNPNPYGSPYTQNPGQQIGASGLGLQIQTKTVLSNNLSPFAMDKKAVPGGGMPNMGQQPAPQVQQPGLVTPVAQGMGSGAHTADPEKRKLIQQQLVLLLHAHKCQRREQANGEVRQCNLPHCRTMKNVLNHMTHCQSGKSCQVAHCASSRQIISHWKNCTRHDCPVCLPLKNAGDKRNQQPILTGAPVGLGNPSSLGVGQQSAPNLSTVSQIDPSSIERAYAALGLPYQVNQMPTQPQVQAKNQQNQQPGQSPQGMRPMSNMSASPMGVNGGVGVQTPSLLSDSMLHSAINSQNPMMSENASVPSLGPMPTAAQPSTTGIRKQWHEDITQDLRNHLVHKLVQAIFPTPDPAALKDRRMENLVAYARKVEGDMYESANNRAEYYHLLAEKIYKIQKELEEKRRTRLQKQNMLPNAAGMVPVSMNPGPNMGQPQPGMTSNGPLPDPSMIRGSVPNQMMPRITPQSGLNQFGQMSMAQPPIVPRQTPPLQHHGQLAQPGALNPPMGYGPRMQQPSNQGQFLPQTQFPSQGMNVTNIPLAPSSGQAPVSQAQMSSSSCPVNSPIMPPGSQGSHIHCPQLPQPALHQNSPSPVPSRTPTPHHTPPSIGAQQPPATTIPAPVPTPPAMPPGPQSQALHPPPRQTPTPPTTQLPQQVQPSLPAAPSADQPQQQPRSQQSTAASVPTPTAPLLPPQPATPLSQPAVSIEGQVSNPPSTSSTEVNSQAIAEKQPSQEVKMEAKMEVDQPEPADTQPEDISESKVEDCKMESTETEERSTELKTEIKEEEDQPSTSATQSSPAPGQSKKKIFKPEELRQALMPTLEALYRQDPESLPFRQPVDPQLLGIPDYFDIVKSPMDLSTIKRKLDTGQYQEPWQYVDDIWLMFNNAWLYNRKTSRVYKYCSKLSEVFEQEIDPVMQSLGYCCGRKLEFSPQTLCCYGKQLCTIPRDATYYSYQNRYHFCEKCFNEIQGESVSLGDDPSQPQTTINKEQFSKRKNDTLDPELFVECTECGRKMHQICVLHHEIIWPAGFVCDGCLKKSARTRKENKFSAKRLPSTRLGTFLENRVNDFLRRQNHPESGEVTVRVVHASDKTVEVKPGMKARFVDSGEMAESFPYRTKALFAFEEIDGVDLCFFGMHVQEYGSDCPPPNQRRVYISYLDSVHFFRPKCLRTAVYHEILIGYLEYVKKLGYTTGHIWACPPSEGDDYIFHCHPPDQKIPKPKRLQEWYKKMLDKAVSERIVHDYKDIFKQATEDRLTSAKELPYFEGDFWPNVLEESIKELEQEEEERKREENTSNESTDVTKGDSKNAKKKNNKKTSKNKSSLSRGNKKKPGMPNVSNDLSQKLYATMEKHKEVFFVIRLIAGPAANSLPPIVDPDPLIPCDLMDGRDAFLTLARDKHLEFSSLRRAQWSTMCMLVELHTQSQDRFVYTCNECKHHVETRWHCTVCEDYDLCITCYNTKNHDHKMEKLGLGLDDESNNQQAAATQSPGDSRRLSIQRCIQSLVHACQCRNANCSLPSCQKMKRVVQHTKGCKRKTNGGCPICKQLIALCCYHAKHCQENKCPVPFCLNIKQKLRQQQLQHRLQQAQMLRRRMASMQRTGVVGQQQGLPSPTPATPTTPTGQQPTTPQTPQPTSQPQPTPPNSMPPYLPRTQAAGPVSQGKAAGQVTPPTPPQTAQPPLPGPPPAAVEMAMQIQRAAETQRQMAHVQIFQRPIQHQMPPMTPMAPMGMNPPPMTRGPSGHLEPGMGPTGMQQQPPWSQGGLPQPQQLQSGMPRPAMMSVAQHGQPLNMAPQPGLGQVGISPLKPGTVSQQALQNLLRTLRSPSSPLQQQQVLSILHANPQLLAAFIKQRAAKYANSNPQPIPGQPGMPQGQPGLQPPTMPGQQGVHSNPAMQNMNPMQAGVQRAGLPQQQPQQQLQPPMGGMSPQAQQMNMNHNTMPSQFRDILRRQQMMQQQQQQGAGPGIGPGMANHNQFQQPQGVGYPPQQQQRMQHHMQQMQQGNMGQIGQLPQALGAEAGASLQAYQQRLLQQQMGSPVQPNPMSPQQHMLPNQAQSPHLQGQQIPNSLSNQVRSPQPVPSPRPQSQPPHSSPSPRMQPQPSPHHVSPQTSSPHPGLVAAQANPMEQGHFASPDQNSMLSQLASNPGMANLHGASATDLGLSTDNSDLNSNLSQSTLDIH

[2] = target: β-catenin/CBP interaction (Homo sapiens, UniProt Q92793); conditions: Emami et al., Cancer Cell, in press; cited from earlier work
β-catenin/CBP interaction, sequence (Q92793 whole entry): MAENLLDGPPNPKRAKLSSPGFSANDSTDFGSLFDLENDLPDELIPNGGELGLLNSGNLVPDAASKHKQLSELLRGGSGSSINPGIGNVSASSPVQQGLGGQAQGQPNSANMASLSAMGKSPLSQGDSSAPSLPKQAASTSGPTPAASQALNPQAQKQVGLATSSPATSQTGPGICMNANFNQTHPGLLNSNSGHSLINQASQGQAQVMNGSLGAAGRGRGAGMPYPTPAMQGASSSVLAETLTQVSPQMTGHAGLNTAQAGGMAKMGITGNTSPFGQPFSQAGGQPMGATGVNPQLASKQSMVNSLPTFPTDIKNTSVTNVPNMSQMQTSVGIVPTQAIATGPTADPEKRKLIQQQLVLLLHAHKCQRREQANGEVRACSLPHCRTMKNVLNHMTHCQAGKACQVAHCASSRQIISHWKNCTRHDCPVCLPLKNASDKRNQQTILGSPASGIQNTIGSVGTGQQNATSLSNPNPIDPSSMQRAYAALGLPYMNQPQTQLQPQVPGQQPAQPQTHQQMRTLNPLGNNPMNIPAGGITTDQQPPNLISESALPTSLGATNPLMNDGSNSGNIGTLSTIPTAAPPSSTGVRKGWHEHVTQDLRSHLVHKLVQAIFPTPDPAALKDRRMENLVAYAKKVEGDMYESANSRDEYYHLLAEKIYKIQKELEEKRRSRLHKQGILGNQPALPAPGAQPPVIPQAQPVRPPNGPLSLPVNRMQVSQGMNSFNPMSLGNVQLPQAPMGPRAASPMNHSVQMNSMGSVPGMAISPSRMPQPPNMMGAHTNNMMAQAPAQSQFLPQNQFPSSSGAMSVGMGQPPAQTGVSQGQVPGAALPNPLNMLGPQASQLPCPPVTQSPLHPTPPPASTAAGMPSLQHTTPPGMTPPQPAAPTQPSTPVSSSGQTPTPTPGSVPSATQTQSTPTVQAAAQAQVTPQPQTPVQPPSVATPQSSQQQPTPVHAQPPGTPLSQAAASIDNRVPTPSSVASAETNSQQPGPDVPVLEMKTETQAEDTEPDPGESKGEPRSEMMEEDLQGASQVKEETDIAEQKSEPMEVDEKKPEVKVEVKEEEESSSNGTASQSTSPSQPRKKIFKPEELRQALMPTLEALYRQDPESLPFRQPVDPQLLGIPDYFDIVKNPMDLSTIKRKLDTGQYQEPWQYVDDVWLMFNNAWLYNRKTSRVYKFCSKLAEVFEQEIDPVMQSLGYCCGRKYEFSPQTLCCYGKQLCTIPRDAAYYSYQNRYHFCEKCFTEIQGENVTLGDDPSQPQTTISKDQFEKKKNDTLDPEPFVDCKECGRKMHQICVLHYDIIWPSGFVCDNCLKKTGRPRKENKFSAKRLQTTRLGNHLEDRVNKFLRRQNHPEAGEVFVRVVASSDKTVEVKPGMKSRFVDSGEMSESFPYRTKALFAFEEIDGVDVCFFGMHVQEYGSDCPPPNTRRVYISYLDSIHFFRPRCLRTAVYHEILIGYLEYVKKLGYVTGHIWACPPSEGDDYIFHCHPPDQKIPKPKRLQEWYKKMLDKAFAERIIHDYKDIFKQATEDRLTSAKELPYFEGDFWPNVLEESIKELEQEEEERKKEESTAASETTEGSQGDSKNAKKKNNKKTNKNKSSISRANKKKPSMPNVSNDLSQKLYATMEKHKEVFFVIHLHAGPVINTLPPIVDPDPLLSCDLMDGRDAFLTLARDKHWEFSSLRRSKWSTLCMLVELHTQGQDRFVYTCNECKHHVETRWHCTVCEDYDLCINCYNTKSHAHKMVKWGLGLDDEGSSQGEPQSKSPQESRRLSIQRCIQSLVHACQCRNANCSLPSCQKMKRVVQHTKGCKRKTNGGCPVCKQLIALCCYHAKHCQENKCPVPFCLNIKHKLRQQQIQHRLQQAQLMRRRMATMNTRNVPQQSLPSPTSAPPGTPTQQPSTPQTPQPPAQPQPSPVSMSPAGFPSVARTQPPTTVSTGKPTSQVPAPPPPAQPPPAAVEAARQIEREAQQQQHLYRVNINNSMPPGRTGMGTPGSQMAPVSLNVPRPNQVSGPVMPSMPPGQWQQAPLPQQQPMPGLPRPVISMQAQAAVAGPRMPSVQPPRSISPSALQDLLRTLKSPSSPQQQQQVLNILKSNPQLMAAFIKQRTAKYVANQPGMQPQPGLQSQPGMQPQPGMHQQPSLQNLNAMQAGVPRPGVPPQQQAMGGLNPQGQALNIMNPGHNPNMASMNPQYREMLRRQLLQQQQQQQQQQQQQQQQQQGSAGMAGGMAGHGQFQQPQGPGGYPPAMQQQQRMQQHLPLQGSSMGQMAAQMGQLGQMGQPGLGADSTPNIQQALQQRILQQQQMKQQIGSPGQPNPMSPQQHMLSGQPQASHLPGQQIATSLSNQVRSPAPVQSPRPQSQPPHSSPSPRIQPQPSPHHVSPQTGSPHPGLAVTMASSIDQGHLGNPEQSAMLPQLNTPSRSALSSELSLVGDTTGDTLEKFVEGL

surviving protein = experiment: Western blot analysis of survivin protein; assay type: cell-based; conditions: 10 μM or 25 μM
GADD-153 = experiment: Real time RT-PCR gene expression, GADD-153; assay type: cell-based; conditions: 25 μM, 24 hours; <0.5 significant decrease, >1.5 significant increase
Protocol: as §1

[3] = test system: caspase-3/7 in HCT116 cells; experiment: Caspase-3/7 activity assay, HCT116; assay type: cell-based; conditions: HCT116, 25 μM, 24 hours, compared to CCD18Co cells
Protocol: (§2) SW480, HCT116, and CCD18Co cells were plated at 10^5 cells per well (96-well plates) for 24 hours prior to treatment. […] 24 hours post treatment, cells were lysed and caspase activity was measured using a caspase-3/7 activity kit (Apo-One Homogeneous caspase-3/7 assay, #G77905, Promega). Relative fluorescence units (RFU) were obtained by subtracting the unit values of the blank (control, without cells) from the experimental measured values.
(§3) Caspases are cysteine proteases that are generally activated in a given population of cells triggered by apoptotic stimuli.

cultured tumor cells = experiment: Cell death of cultured tumor cells; assay type: cell-based; conditions: 5.0 μM
[4] = test system: PC-12 cells overexpressing PS-1/L286V; experiment: Neurite outgrowth and differentiation of PC-12 PS-1/L286V cells; assay type: cell-based, Rat; conditions: PS-1/L286V mutant PC-12 cells, 10 μM plus NGF
Protocol: Cell Differentiation. Cell culture dishes were pre-coated overnight with 0.25 mg/ml collagen (Cohesion, CA), 10 μg/ml Poly-L-Lysine (Sigma-Aldrich, St. Louis, Mo.) and 12 μg/ml Polyethyleneimine (ICN, La Mesa, Calif.). Cells were cultured on coated dishes at 15,000 cells/cm^2, and differentiated into a neuron-like phenotype by incubation in medium with reduced serum (1% fetal bovine serum), containing 50 ng/ml nerve growth factor (NGF) (Sigma-Aldrich) for 10 days. NGF-containing medium was changed every 2-3 days.
Differentiated PC-12/L286V cells were treated with increasing concentrations of this compound for 4 hours. Transfection was then initiated after this treatment period.
Quantitation of Neurite Outgrowth. Cell counts were taken from six randomly chosen microscopic fields (10×). […] The number of cells with such outgrowths was then expressed as a percentage of the total number of cells. Values obtained were from duplicates of three independent experiments.

[5] = test system: caspase-3/7 in SW480 cells; experiment: Caspase-3/7 activity assay, SW480; assay type: cell-based; conditions: SW480, 25 μM, 24 hours, compared to CCD18Co cells
Protocol: as §2, §3

SW480 cells = experiment: Flow cytometric analysis (FACS) of cell cycle, SW480; assay type: cell-based; conditions: SW480, 25 μM, 24 hours
Protocol: For FACS analysis, approx. 5×10^6 cells from Compound D-treated or vehicle-treated were fixed with 70% chilled ethanol and stored at −20° C. for at least 30 minutes. The cells were washed once with 1×PBS and incubated with propidium iodine (PI) solution (85 μg/ml propidium iodine, 0.1% Nonidet P-40, 10 mg/ml RNAse) for 30 minutes at room temperature. 10,000 stained cells for each sample were acquired using Beckman Coulter EPICS XL-MCL Flow Cytometry and the percentage of cells in different phase of the cell cycle was determined by Expo32 ADC software (Coulter Corporation, Miami, Fla., 33196).
It has been shown that inhibition of the expression of the cyclin D1 gene causes arrest at the G1/S-phase of the cell cycle (Shintani et al., “Infrequent alternations of RB pathway (Rb-p16INK4A-cyclin D1) in adenoid cystic carcinoma of salivary glands,” Anticancer Res. 20:2169-75 (2000)). […] The cells were subsequently stained with propidium iodide (PI) and analyzed for DNA content by FACS cytofluorometry.

O=C1[C@H](Cc2ccc(O)cc2)N2C(=O)CCN(C(=O)NCc3ccccc3)[C@H]2CN1Cc1cccc2ccccc12 [Compound D]
Ratio (Treated/DMSO Control) GADPH (GADPH): 0.98 | Ratio (Treated/DMSO Control) HLAC (HLAC): 1.01 | blocking of β-catenin/p300 interaction [1]: not the β-catenin/p300 interaction | blocking of β-catenin/CBP interaction [2]: selectively blocks the β-catenin/CBP interaction | amount of survivin protein (Western blot) (surviving protein): reduced the amount of the surviving protein | Ratio (Treated/DMSO Control) GADD-153 (GADD-153): 7.00 | caspase-3/7 activity [3]: specifically and significantly activated the caspase-3/7 pathway | cell death (cultured tumor cells): promote cell death | percentage of cells bearing neurites greater than twice the length of the cell body [4]: substantially increased the percentage of cells bearing neurites | neurite outgrowth and differentiation ([4]; 10 days): essentially normal neurite outgrowth and differentiation | caspase-3/7 activity [5]: specifically and significantly activated the caspase-3/7 pathway | cell cycle distribution (FACS, PI) (SW480 cells): increased accumulation at G1/S-phase of the cell cycle
